From patent publication US20120095062A1, “TRICYCLIC COMPOUNDS, COMPOSITIONS, AND METHODS” (Pfizer Inc., priority 2007, published 2012)
Counter-ions that a name gives are not always drawn. Like-named read-outs stand apart in the source and are kept apart here. One block for each molecule: values may come before it.

Legend:
TNFα, U937 cells = test: TNFα inhibition in LPS-stimulated differentiated U937 cells; type: cell-based; set-up: inhibition: dose or concentration left out as unconfirmed; conditions: Homo sapiens
Protocol: Cells were differentiated to a monocyte/macrophage phenotype with phorbol 12-myristate 13-acetate (Sigma-Aldrich, St. Louis, Mo.), 20 ng/mL, overnight. […] Following recovery, the cells were scraped, counted, and plated in accordance to the experimental design prior to stimulation with LPS, as described below. U937 cells were differentiated and plated at a density of 200,000 cells/well in 96-well plates. […] Louis, Mo.) for four hours at 37° C. and with 5% CO2. Cell supernatants were collected for determination of TNFα levels using an in-house sandwich-type ELISA. Mouse anti-human TNFα monoclonal antibody (clone 28401.111) and biotinylated goat anti-human TNFα (R&D Systems, Minneapolis, Minn.) were used as the capture and detection antibodies, respectively. Streptavidin-horseradish peroxidase (HRP) (R&D Systems, Minneapolis, Minn.) and K-Blue Substrate/Red Stop (Neogen, Lexington, Ky.) were used as the detection system. Absorbance was measured at 650 nm. TNFα concentrations were interpolated from a human TNFα recombinant protein (R&D Systems, Minneapolis, Minn.) standard curve using a four parameter logistics model by Magellan 4.11 data analysis software (Tecan, Durham, N.C.). […] Vehicle was used to define the 0% inhibition control. Percent inhibition for each concentration of compound, relative to these controls, was calculated using Excel (Microsoft, Redmond, Wash.).

IL-1β = test: Ex vivo LPS-stimulated human whole blood, IL-1β production; type: cell-based; conditions: one donor
Protocol: (§1) Venous blood from human donors was collected as 10 ml aliquots in tubes containing sodium heparin (BD Vacutainer from Becton Dickinson and Company, Franklin Lakes, N.Y.). Blood was added to sterile polystyrene round bottom 96-well tissue culture plates (Corning Costar) at 100 μl/well, omitting the outside wells. Media (RPMI Medium 1640 with L-glutamine, Invitrogen Corporation, Carlsbad, Calif.) was added to the blood in 90 μl aliquots for a total volume of 190 μl. Outside wells were filled with 200 μl of media. Blood was placed in a humidified 37° C. incubator with 5% CO2 while compounds were prepared (nearly 60 minutes).
(§2) Compounds were prepared from 10 mM stock solutions in dimethylsulfoxide (DMSO, Sigma-Aldrich). […] Final DMSO and ethanol concentrations in the assay were 0.1% and 1.5%. The samples were gently triturated twice to mix and replaced in the incubator. LPS stock (E. coli serotype 0111:84, Sigma-Aldrich), stored in aliquots of 100 μg/ml in RPMI at −20° C., was diluted 1/50 in RPMI to make a working stock solution. After 60 minutes of incubation, 10 μl of the prepared LPS working stock was added to the blood to a final concentration of 100 ng/ml, omitting wells to be used as negative control. The samples were again gently triturated and the plates incubated overnight for 22 hours. Following incubation, the blood was centrifuged at 1500×g for 5 minutes and the plasma removed to either freeze at −20° C. or assay for cytokine release.
(§3) IL-1β, IFNγ,IL-6, and TNFα protein levels were measured using Meso Scale assay kits (Meso Scale Discovery, Gaithersburg, Md.). Reagents were allowed to come to room temperature. Meso Scale plates were blocked with […] of human plasma/serum assay diluent with gentle shaking for 60 minutes at room temperature. Plates were washed 3× with wash buffer (PBS, Invitrogen Corporation, with 0.05% Tween-20, Sigma-Aldrich). Calibrators for standard curves were prepared in human plasma/serum assay diluent as a 1/5 serial dilution to achieve final concentrations ranging from 50000 pg/ml to 3.2 pg/ml. Samples and calibrators were added at 20 μl/well, then incubated at room temperature with gentle shaking for 90 minutes. Plates were again washed 3 times with wash buffer. Detection antibody was diluted in human plasma/serum antibody diluent to 1 μg/ml and added to the plate at 20 μl/well. Plates were incubated as before for 60 minutes and washed again. Read Buffer T (4×) was diluted 1:1 with mqH2O to 2 times concentration and 150 μl added to each well. Plates were analyzed on the SECTOR Imager 6000 (Meso Scale Discovery) to generate raw signal values.
(§4) IL-1β, IFNγ, IL-6, and TNFα sample values were verified to be within the calibrator standard curves. Individual values were compared to positive and negative controls (vehicle treated blood with LPS and vehicle treated blood without LPS, respectively) to generate % inhibition. Triplicate values were averaged for each donor. The values for two donors were averaged (only one donor was used for IL-1β) and graphed using 4-parameter fit curves in the GraFit 5.0.11 application.

IFNγ = test: Ex vivo LPS-stimulated human whole blood, IFNγ production; type: cell-based; conditions: mean
Protocol: as §1, §2, §3, §4

IL-6 = test: Ex vivo LPS-stimulated human whole blood, IL-6 production; type: cell-based; conditions: mean
Protocol: as §1, §2, §3, §4

[1] = tested on: IL-6, Human A549 lung epithelial cells; test: IL-6 inhibition in IL-1β-stimulated A549 cells; type: cell-based; conditions: for IC50: A549, 20 h, A549 cells, 1 ng/mL IL-1β, 20 hours, read-out: IL-6 IC50; for inhibition: A549, A549 cells, Prednisolone (1 μM) = 100% inhibition control
Protocol: Human A549 lung epithelial cells (American Type Culture Collection, Rockville, Md.) were cultured in Kaighn's F-12K medium with penicillin-streptomycin (10 U/mL) and 10% heat-inactivated fetal bovine serum (all from Invitrogen, Grand Island, N.Y.). A549 cells were plated at a density of 30,000 cells/well in 96-well plates and incubated overnight at 37° C. and with 5% CO2. The cells were serum-starved by replacing the growth medium with serum-free Kaighn's F-12K medium with penicillin-streptomycin (10 U/mL) and, again, incubating overnight at 37° C. and with 5% CO2. On the third day, the medium was replaced with fresh serum-free medium and the cells were incubated with or without compound (vehicle was DMSO at 0.1% maximum concentration) for approximately 1 hour and then stimulated with 1 ng/mL recombinant human IL-1β (R&D Systems, Minneapolis, Minn.) for 20 hours at 37° C. and with 5% CO2. Cell supernatants were collected for determination of IL-6 levels using MSD (Meso Scale Discovery, Gaithersburg, Md.) 96-well Single Spot plates as per the manufacturer's instructions. Plates were read with an MSD Sector Imager 6000. […] Vehicle was used to define the 0% inhibition control. Percent inhibition for each compound concentration, relative to these controls, was calculated using Excel (Microsoft, Redmond, Wash.). IC50 values were generated using GraFit 5.0 data analysis software (Erithacus Software Ltd., Surrey, UK).

Serum osteocalcin = Serum osteocalcin suppression, 28-day repeat dose mouse model; type: in vivo, mice; conditions: Mus musculus, 672 h; mice, oral gavage 28 days, serum osteocalcin
LPS-induced serum TNFα = LPS-induced serum TNFα suppression, 28-day repeat dose mouse model; type: in vivo; conditions: 672 h, mice, oral gavage 28 days
TNFα = test: Ex vivo LPS-stimulated human whole blood, TNFα production; type: cell-based; conditions: mean
Protocol: as §1, §2, §3
as §4, with “Individual” for “IL-1β, IFNγ, IL-6, and TNFα sample values were verified to be within the calibrator standard curves. Individual”

[2] = tested on: Mouse Collagen-induced arthritis; test: Therapeutic mouse collagen-induced arthritis (mCIA) model; type: in vivo; conditions: mice, dosing day 34 through day 49, read-out: Therapeutic mCIA (ED50 dose)
From the text: Mouse Collagen-induced arthritis is a commonly used chronic, preclinical model of rheumatoid arthritis in which joint swelling and bone destruction occur following immunization with type II collagen. Reduction of disease incidence and severity has been shown previously to be predictive of disease-modification and signs and symptoms mitigation, respectively, in a clinical setting.
In the therapeutic mCIA model, induction of disease incidence and severity was synchronized via LPS stimulation. Male […] mice were immunized with 100 ug of bovine type II collagen (bCII) on day 0. All mice received an intraperitoneal injection of 20 μg of LPS on day 28 and disease was allowed to develop through day 34. At day 34, all mice had disease (incidence=100%) with an average severity score of seven. Dosing of compounds was initiated in the therapeutic mode on day 34 and continued through day 49. Different treatments were compared by measuring the decrease in incidence (i.e., resolution of disease) and the decrease in severity of paw swelling over time.

[3] = U-937, 4 h, U937 cells, 100 ng/mL LPS, four hours, read-out: TNFα IC50

Compound: Cc1ncccc1CNC(=O)c1ccc2c(c1)CC[C@@H]1C[C@@](O)(CCC(F)(F)F)CC[C@@]21Cc1ccccc1 [Comparator A, (4βS,7S,8αR)-4β-benzyl-7-hydroxy-N-((2-methylpyridin-3-yl)methyl)-7-(3,3,3-trifluoropropyl)-4β,5,6,7,8,8α,9,10-octahydrophenanthrene-2-carboxamide]
inhibition (TNFα, U937 cells; U-937): 35%
IC50 (TNFα, U937 cells; [3]): > 1000 nM
inhibition at 0.00137174 µM (IL-1β; 1.371742 nM): 32%
inhibition at 0.00411523 µM (IL-1β; 4.115226 nM): 22%
inhibition at 0.0123457 µM (IL-1β; 12.34568 nM): 22.8%
inhibition at 0.037037 µM (IL-1β; 37.03704 nM): 17.3%
inhibition at 0.111111 µM (IL-1β; 111.1111 nM): 8.6%
inhibition at 0.333333 µM (IL-1β; 333.3333 nM): 12.2%
inhibition at 1 µM (IL-1β; 1000 nM): 15%
inhibition at 3 µM (IL-1β; 3000 nM): 16.4%
inhibition at 0.00137174 µM (IFNγ; 1.371742 nM): 18.1%
inhibition at 0.00411523 µM (IFNγ; 4.115226 nM): -1.7%
inhibition at 0.0123457 µM (IFNγ; 12.34568 nM): 0.016%
inhibition at 0.037037 µM (IFNγ; 37.03704 nM): -9.81%
inhibition at 0.111111 µM (IFNγ; 111.1111 nM): 8.74%
inhibition at 0.333333 µM (IFNγ; 333.3333 nM): -6.32%
inhibition at 1 µM (IFNγ; 1000 nM): 16.5%
inhibition at 3 µM (IFNγ; 3000 nM): 28%
inhibition at 0.00137174 µM (IL-6; 1.371742 nM): 1.46%
inhibition at 0.00411523 µM (IL-6; 4.115226 nM): -4.34%
inhibition at 0.0123457 µM (IL-6; 12.34568 nM): -1.13%
inhibition at 0.037037 µM (IL-6; 37.03704 nM): -3.52%
inhibition at 0.111111 µM (IL-6; 111.1111 nM): -3.5%
inhibition at 0.333333 µM (IL-6; 333.3333 nM): -2.83%
inhibition at 1 µM (IL-6; 1000 nM): -0.89%
inhibition at 3 µM (IL-6; 3000 nM): -1.97%
IC50 [1]: > 36.4 nM
inhibition [1]: 59.9%
ED50 (Serum osteocalcin): 37 mg/kg
ED50 (LPS-induced serum TNFα): 60 mg/kg
inhibition at 0.00137174 µM (TNFα; 1.371742 nM): 18.1%
inhibition at 0.00411523 µM (TNFα; 4.115226 nM): -0.861%
inhibition at 0.0123457 µM (TNFα; 12.34568 nM): 0.0309%
inhibition at 0.037037 µM (TNFα; 37.03704 nM): -4.19%
inhibition at 0.111111 µM (TNFα; 111.1111 nM): -3.82%
inhibition at 0.333333 µM (TNFα; 333.3333 nM): -4.61%
inhibition at 1 µM (TNFα; 1000 nM): -5.44%
inhibition at 3 µM (TNFα; 3000 nM): -3.04%

Compound: Cc1ncccc1NC(=O)c1ccc2c(c1)C(=O)C[C@@H]1C[C@@](O)(C(F)(F)F)CC[C@@]21Cc1ccccc1 [Comparator E, (4β,7R,8αS)-4β-benzyl-7-hydroxy-N-(2-methylpyridin-3-yl)-10-oxo-7-(trifluoromethyl)-4β,5,6,7,8,8α,9,10-octahydrophenanthrene-2-carboxamide]
ED50 [2]: 0.5 mg/kg
IC50 [1]: 1.1 nM
inhibition [1]: 79.7%
ED50 (Serum osteocalcin): 0.17 mg/kg
ED50 (LPS-induced serum TNFα): 0.14 mg/kg

Compound: Cc1ncccc1NC(=O)c1ccc2c(c1)CC[C@@H]1C[C@@](O)(C(F)F)CC[C@@]21Cc1ccccc1 [Comparator H, (4βS,7R,8αR)-4β-benzyl-7-(difluoromethyl)-7-hydroxy-N-(2-methylpyridin-3-yl)-4β,5,6,7,8,8α,9,10-octahydrophenanthrene-2-carboxamide]
IC50 [1]: 4.3 nM
inhibition [1]: 64.9%
ED50 (Serum osteocalcin): 0.51 mg/kg
ED50 (LPS-induced serum TNFα): 0.23 mg/kg

Compound: Cc1ncccc1NC(=O)c1ccc2c(c1)C=C[C@@H]1C[C@@](O)(C(F)(F)F)CC[C@@]21Cc1ccccc1 [Comparator I]
ED50 [2]: 17 mg/kg
IC50 [1]: 2.8 nM
inhibition [1]: 67.5%
ED50 (Serum osteocalcin): 5.2 mg/kg
ED50 (LPS-induced serum TNFα): 0.73 mg/kg

IC50 (TNFα, U937 cells; [3]): 92.1 nM
IC50 (TNFα, U937 cells; U-937, value in brackets, footnote a: additional results that were found, read-out: TNFα IC50 (nM), additional result): 28.8 nM
IC50 [1]: 0.4 nM
Compound: Cc1ncccc1NC(=O)c1ccc2c(c1)CC[C@@H]1C[C@@](O)(C(F)(F)F)CC[C@@]21Cc1ccccc1 [Example 1 HCL salt, (4βS,7R,8αR)-4β-benzyl-7-hydroxy-N-(2-methylpyridin-3-yl)-7-(trifluoromethyl)-4β,5,6,7,8,8α,9,10-octahydrophenanthrene-2-carboxamide]
inhibition (TNFα, U937 cells; U-937): 77.1%
inhibition [1]: 76.9%

Compound: Cc1ccncc1NC(=O)c1ccc2c(c1)CC[C@@H]1C[C@@](O)(C(F)(F)F)CC[C@@]21Cc1ccccc1 [Comparator D, (4βS,7R,8αR)-4β-benzyl-7-hydroxy-N-(4-methylpyridin-3-yl)-7-(trifluoromethyl)-4β,5,6,7,8,8α,9,10-octahydrophenanthrene-2-carboxamide]
IC50 [1]: 1.3 nM
inhibition [1]: 79.8%
ED50 (Serum osteocalcin): 1.18 mg/kg
ED50 (LPS-induced serum TNFα): 1.47 mg/kg

Compound: Cc1c(NC(=O)c2ccc3c(c2)CC[C@@H]2C[C@@](O)(C(F)(F)F)CC[C@@]32Cc2ccccc2)ccc[n+]1[O-] [Comparator G]
IC50 [1]: 2.1 nM
inhibition [1]: 80.1%
ED50 (Serum osteocalcin): 1.12 mg/kg
ED50 (LPS-induced serum TNFα): 2.9 mg/kg

IC50 [1]: 60 nM
Compound: Cc1ncccc1NC(=O)c1ccc2c(c1)CC[C@@H]1C[C@@](OP(=O)(O)O)(C(F)(F)F)CC[C@@]21Cc1ccccc1 [Example 2, (2R,4αS,10αR)-4α-benzyl-7-((2-methylpyridin-3-yl)carbamoyl)-2-(trifluoromethyl)-1,2,3,4,4α,9,10α-octahydrophenanthren-2-yl dihydrogen phosphate]
